From ChEMBL document CHEMBL5518215, “Unlocking Antibacterial Potential: Key-Site-Based Regulation of Antibacterial Spectrum of Peptides” (J Med Chem, 2024)

Legend:
[1] = Cytotoxicity against human HEK-293T cells assessed as cell survival rate measured after 8 hrs by MTT assay; assay type: toxicity, cell-based
Listeria monocytogenes [2] = test: Antimicrobial activity against Listeria monocytogenes 1.10753 assessed as absence bacterial growth measured after 18 to 24 hrs incubation by NCCLS method; assay type: functional; settings: time 18-24 hrs
Salmonella typhimurium [3] = test: Antimicrobial activity against Salmonella typhimurium C7731 assessed as absence bacterial growth measured after 18 to 24 hrs incubation by NCCLS method; assay type: functional, Salmonella enterica subsp. enterica serovar Typhimurium; settings: Salmonella enterica, time 18-24 hrs
Enterococcus faecalis [4] = test: Antimicrobial activity against Enterococcus faecalis 29212 assessed as absence bacterial growth measured after 18 to 24 hrs incubation by NCCLS method; assay type: functional; settings: time 18-24 hrs
Escherichia coli [5] = test: Antimicrobial activity against Escherichia coli 25922 assessed as absence bacterial growth measured after 18 to 24 hrs incubation in presence of 50% serum by NCCLS method; assay type: functional; settings: time 18-24 hrs
Pseudomonas aeruginosa [6] = test: Antimicrobial activity against Pseudomonas aeruginosa 27853 assessed as absence bacterial growth measured after 18 to 24 hrs incubation by NCCLS method; assay type: functional; settings: time 18-24 hrs
Escherichia coli [7] = test: Antimicrobial activity against Escherichia coli 25922 assessed as bacterial killing measured after 16 hrs incubation; assay type: functional
Escherichia coli [8] = test: Antimicrobial activity against Escherichia coli K88 assessed as bacterial killing measured after 16 hrs incubation; assay type: functional
Staphylococcus aureus [9] = test: Antimicrobial activity against Staphylococcus aureus 25923 assessed as bacterial killing measured after 16 hrs incubation; assay type: functional
Enterococcus faecalis [10] = test: Antimicrobial activity against Enterococcus faecalis 29212 assessed as bacterial killing measured after 16 hrs incubation; assay type: functional
Escherichia coli [11] = test: Antimicrobial activity against Escherichia coli 25922 assessed as absence bacterial growth measured after 18 to 24 hrs incubation in presence of 12.5% serum by NCCLS method; assay type: functional; settings: time 18-24 hrs
Salmonella typhimurium [12] = test: Antimicrobial activity against Salmonella typhimurium C7731 assessed as bacterial killing measured after 16 hrs incubation; assay type: functional, Salmonella enterica subsp. enterica serovar Typhimurium; settings: Salmonella enterica
[13] = tested on: Staphylococcus epidermidis; test: Antimicrobial activity against Staphylococcus epidermidis 12228 assessed as absence bacterial growth measured after 18 to 24 hrs incubation by NCCLS method; assay type: functional; settings: time 18-24 hrs
Staphylococcus aureus [14] = test: Antimicrobial activity against Staphylococcus aureus 29213 assessed as absence bacterial growth measured after 18 to 24 hrs incubation by NCCLS m; assay type: functional; settings: time 18-24 hrs
Escherichia coli [15] = test: Antimicrobial activity against Escherichia coli 25922 assessed as absence bacterial growth measured after 18 to 24 hrs incubation in presence of NH4Cl by NCCLS method; assay type: functional; settings: time 18-24 hrs
Pseudomonas aeruginosa [16] = test: Antimicrobial activity against Pseudomonas aeruginosa 27853 assessed as bacterial killing measured after 16 hrs incubation; assay type: functional
Bacillus cereus [17] = test: Antimicrobial activity against Bacillus cereus 1.932 assessed as bacterial killing measured after 16 hrs incubation; assay type: functional
Escherichia coli [18] = test: Antimicrobial activity against Escherichia coli 25922 assessed as absence bacterial growth measured after 18 to 24 hrs incubation in presence of 25% serum by NCCLS method; assay type: functional; settings: time 18-24 hrs
[19] = Hemolytic activity in human RBC at effective concentration at 128 uM measured after 1 hr by microplate reader relative to control; assay type: toxicity, cell-based, Erythrocyte; settings: human red blood cells (erythrocytes), read-out: Activity
[20] = Cytotoxicity against mouse RAW264.7 cells assessed as cell survival rate measured after 8 hrs by MTT assay; assay type: toxicity, cell-based
Escherichia coli [21] = test: Antimicrobial activity against Escherichia coli 25922 assessed as absence bacterial growth measured after 18 to 24 hrs incubation by NCCLS method; assay type: functional; settings: time 18-24 hrs
[22] = Cytotoxicity against porcine IPEC-J2 cells assessed as cell survival rate at 64 uM measured after 8 hrs by MTT assay relative to control; assay type: toxicity, cell-based, Sus scrofa; settings: pig, read-out: Activity
[23] = tested on: Staphylococcus epidermidis; test: Antimicrobial activity against Staphylococcus epidermidis 12228 assessed as bacterial killing measured after 16 hrs incubation; assay type: functional
Bacillus cereus [24] = test: Antimicrobial activity against Bacillus cereus 1.932 assessed as absence bacterial growth measured after 18 to 24 hrs incubation by NCCLS method; assay type: functional; settings: time 18-24 hrs
[25] = Antimicrobial activity against Salmonella pullorum C7913 assessed as bacterial killing measured after 16 hrs incubation; assay type: functional, Salmonella enterica subsp. enterica serovar Pullorum; settings: Salmonella enterica
Salmonella typhimurium [26] = test: Antimicrobial activity against Salmonella typhimurium 14028 assessed as absence bacterial growth measured after 18 to 24 hrs incubation by NCCLS method; assay type: functional, Salmonella enterica subsp. enterica serovar Typhimurium; settings: Salmonella enterica, time 18-24 hrs
[27] = Cytotoxicity against porcine IPEC-J2 cells assessed as cell survival rate measured after 8 hrs by MTT assay; assay type: toxicity, cell-based, Sus scrofa; settings: pig
[28] = Antimicrobial activity against Salmonella pullorum C7913 assessed as absence bacterial growth measured after 18 to 24 hrs incubation by NCCLS method; assay type: functional, Salmonella enterica subsp. enterica serovar Pullorum; settings: Salmonella enterica, time 18-24 hrs
Escherichia coli [29] = test: Antimicrobial activity against Escherichia coli 25922 assessed as absence bacterial growth measured after 18 to 24 hrs incubation in presence of NaCl by NCCLS method; assay type: functional; settings: time 18-24 hrs
[30] = Cytotoxicity against human HEK-293T cells assessed as cell survival rate at 64 uM measured after 8 hrs by MTT assay relative to control; assay type: toxicity, cell-based; settings: read-out: Activity
Staphylococcus aureus [31] = test: Antimicrobial activity against Methicillin-resistant Staphylococcus aureus 43300 assessed as absence bacterial growth measured after 18 to 24 hrs incubation by NCCLS method; assay type: functional; settings: time 18-24 hrs
Erythrocyte = test: Hemolytic activity in human RBC at effective concentration measured after 1 hr by microplate reader analysis; assay type: toxicity, cell-based
Escherichia coli [32] = test: Antimicrobial activity against Escherichia coli 25922 assessed as absence bacterial growth measured after 18 to 24 hrs incubation in presence of KCl by NCCLS method; assay type: functional; settings: time 18-24 hrs
Staphylococcus aureus [33] = test: Antimicrobial activity against Staphylococcus aureus 29213 assessed as absence bacterial growth measured after 18 to 24 hrs incubation by NCCLS method; assay type: functional; settings: time 18-24 hrs
Escherichia coli [34] = test: Antimicrobial activity against Escherichia coli 25922 assessed as absence bacterial growth measured after 18 to 24 hrs incubation in presence of MgCl2 by NCCLS method; assay type: functional; settings: time 18-24 hrs
Acinetobacter baumannii [35] = test: Antimicrobial activity against Acinetobacter baumannii 1.6769 assessed as bacterial killing measured after 16 hrs incubation; assay type: functional
Escherichia coli [36] = test: Antimicrobial activity against Escherichia coli 25922 assessed as absence bacterial growth measured after 18 to 24 hrs incubation in presence of FeCl3 by NCCLS method; assay type: functional; settings: time 18-24 hrs
Escherichia coli [37] = test: Antimicrobial activity against Escherichia coli 25922 assessed as absence bacterial growth measured after 18 to 24 hrs incubation in presence of ZnCl2 by NCCLS method; assay type: functional; settings: time 18-24 hrs
Escherichia coli [38] = test: Antimicrobial activity against Escherichia coli K88 assessed as absence bacterial growth measured after 18 to 24 hrs incubation by NCCLS method; assay type: functional; settings: time 18-24 hrs
Salmonella typhimurium [39] = test: Antimicrobial activity against Salmonella typhimurium 14028 assessed as bacterial killing measured after 16 hrs incubation; assay type: functional, Salmonella enterica subsp. enterica serovar Typhimurium; settings: Salmonella enterica
Acinetobacter baumannii [40] = test: Antimicrobial activity against Acinetobacter baumannii 1.6769 assessed as absence bacterial growth measured after 18 to 24 hrs incubation by NCCLS method; assay type: functional; settings: time 18-24 hrs
Staphylococcus aureus [41] = test: Antimicrobial activity against Staphylococcus aureus 29213 assessed as bacterial killing measured after 16 hrs incubation; assay type: functional
Listeria monocytogenes [42] = test: Antimicrobial activity against Listeria monocytogenes 1.10753 assessed as bacterial killing measured after 16 hrs incubation; assay type: functional
Staphylococcus aureus [43] = test: Antimicrobial activity against Methicillin-resistant Staphylococcus aureus 43300 assessed as bacterial killing measured after 16 hrs incubation; assay type: functional

H-GKLWLKGGKLWLKGGKLWLKA-NH2
0.5 µM: MBC (Escherichia coli [8]) | MIC (Escherichia coli [38])
> 80%: viability at 8 h, 64 µM [22] | viability at 8 h, 64 µM [30]
> 32 µM: MIC (Listeria monocytogenes [2]) | MIC (Escherichia coli [5]) | MBC (Staphylococcus aureus [9]) | MIC (Staphylococcus aureus [14]) | MBC (Bacillus cereus [17]) | MIC (Escherichia coli [18]) | MIC (Bacillus cereus [24]) | MBC (Listeria monocytogenes [42])
32 µM: MIC (Escherichia coli [11]) | MIC (Escherichia coli [29]) | MBC (Staphylococcus aureus [41])
< 10%: hemolysis at 1 h, 128 µM [19]
4 µM: MIC (Salmonella typhimurium [3]) | MIC (Pseudomonas aeruginosa [6]) | MBC (Escherichia coli [7]) | MBC (Pseudomonas aeruginosa [16]) | MBC [25] | MBC (Acinetobacter baumannii [35]) | MIC (Acinetobacter baumannii [40])
> 128 µM: HC10 (Erythrocyte)
16 µM: MIC (Enterococcus faecalis [4]) | MBC (Enterococcus faecalis [10]) | MIC (Staphylococcus aureus [33])
8 µM: MBC (Salmonella typhimurium [12]) | MIC [13] | MBC [23] | MIC (Staphylococcus aureus [31]) | MIC (Escherichia coli [34]) | MBC (Salmonella typhimurium [39]) | MBC (Staphylococcus aureus [43])
> 64 µM: IC50 at 8 h [1] | IC50 at 8 h [20] | IC50 at 8 h [27]
2 µM: MIC (Escherichia coli [15]) | MIC (Escherichia coli [21]) | MIC (Salmonella typhimurium [26]) | MIC [28] | MIC (Escherichia coli [32]) | MIC (Escherichia coli [36]) | MIC (Escherichia coli [37])

H-GKLWLKGGKLWLKAGKLWLKG-NH2
8 µM: MIC (Enterococcus faecalis [4]) | MBC (Staphylococcus aureus [9]) | MBC (Salmonella typhimurium [12]) | MBC (Pseudomonas aeruginosa [16]) | MBC [23] | MIC (Staphylococcus aureus [33]) | MIC (Escherichia coli [34]) | MBC (Staphylococcus aureus [41])
16 µM: MBC (Enterococcus faecalis [10]) | MIC (Escherichia coli [11]) | MIC (Escherichia coli [29])
> 32 µM: MIC (Listeria monocytogenes [2]) | MIC (Escherichia coli [5]) | MBC (Listeria monocytogenes [42])
1 µM: MBC (Escherichia coli [8]) | MIC (Escherichia coli [37]) | MIC (Escherichia coli [38])
4 µM: MIC (Salmonella typhimurium [3]) | MIC (Pseudomonas aeruginosa [6]) | MBC (Escherichia coli [7]) | MIC [13] | MIC (Staphylococcus aureus [14]) | MBC (Bacillus cereus [17]) | MIC (Bacillus cereus [24]) | MIC (Salmonella typhimurium [26]) | MIC (Staphylococcus aureus [31]) | MBC (Acinetobacter baumannii [35]) | MBC (Salmonella typhimurium [39]) | MBC (Staphylococcus aureus [43])
> 80%: viability at 8 h, 64 µM [22] | viability at 8 h, 64 µM [30]
> 64 µM: IC50 at 8 h [1] | IC50 at 8 h [20]
32 µM: MIC (Escherichia coli [18])
2 µM: MIC (Escherichia coli [15]) | MIC (Escherichia coli [21]) | MBC [25] | MIC [28] | MIC (Escherichia coli [32]) | MIC (Escherichia coli [36]) | MIC (Acinetobacter baumannii [40])
> 128 µM: HC10 (Erythrocyte)
< 10%: hemolysis at 1 h, 128 µM [19]
54.1 µM: IC50 at 8 h [27]

H-GKLWLKGGKLWLKGGKLWLKG-NH2
> 64 µM: IC50 at 8 h [1] | IC50 at 8 h [20] | IC50 at 8 h [27]
16 µM: MBC (Pseudomonas aeruginosa [16]) | MIC (Escherichia coli [34])
> 32 µM: MIC (Listeria monocytogenes [2]) | MIC (Enterococcus faecalis [4]) | MIC (Escherichia coli [5]) | MBC (Staphylococcus aureus [9]) | MBC (Enterococcus faecalis [10]) | MIC (Escherichia coli [11]) | MIC [13] | MIC (Staphylococcus aureus [14]) | MBC (Bacillus cereus [17]) | MIC (Escherichia coli [18]) | MBC [23] | MIC (Bacillus cereus [24]) | MIC (Escherichia coli [29]) | MIC (Staphylococcus aureus [31]) | MIC (Staphylococcus aureus [33]) | MBC (Staphylococcus aureus [41]) | MBC (Listeria monocytogenes [42]) | MBC (Staphylococcus aureus [43])
8 µM: MIC (Pseudomonas aeruginosa [6]) | MBC (Escherichia coli [7]) | MBC (Salmonella typhimurium [12]) | MBC (Acinetobacter baumannii [35]) | MIC (Acinetobacter baumannii [40])
2 µM: MBC (Escherichia coli [8]) | MBC [25] | MIC (Salmonella typhimurium [26])
4 µM: MIC (Salmonella typhimurium [3]) | MIC (Escherichia coli [15]) | MIC (Escherichia coli [21]) | MIC (Escherichia coli [32]) | MIC (Escherichia coli [36]) | MIC (Escherichia coli [37]) | MBC (Salmonella typhimurium [39])
> 80%: viability at 8 h, 64 µM [22] | viability at 8 h, 64 µM [30]
1 µM: MIC [28] | MIC (Escherichia coli [38])
< 10%: hemolysis at 1 h, 128 µM [19]
> 128 µM: HC10 (Erythrocyte)
